Test results published in patent US20100285959A1, “HERBICIDAL MIXTURES” (priority 2006, published 2010).

Experiments:
redroot pigweed (AMARE) [1] = assay: Test 23 growth chamber, postemergence; assay type: in vivo, Amaranthus retroflexus; conditions: 21 DAA; 2,4-D or MCPA alone 250 g a.i./ha
Description: (§1) A test was conducted to evaluate the effects on winter barley (HORVW, Hordeum vulgare L.), winter wheat (TRZAW, Triticum aestivum L.), and several weed species of mixtures of Compound 2 with the commercial herbicides (2,4-dichlorophenoxy)acetic acid (2,4-D) and (4-chloro-2-methylphenoxy)acetic acid (MCPA), auxin mimics. […] Plants were treated postemergence at the 2-4 leaf growth stage, and each treatment was replicated three times. […] Plants were watered as needed. […] Results are means of the three replicates.

kochia (KCHSC) [2] = assay: Test 22 growth chamber, postemergence; assay type: in vivo, Kochia scoparia; conditions: 25 DAA; 2,4-D or MCPA alone 250 g a.i./ha
Description: as §1, with “stage, except KCHSC, SASKR” for “stage,”, “STEME which were in the 4-8 leaf growth stage. Each” for “each”, “one time.” for “three times.”, “from single” for “means of the three”

galium (GALAP) [3] = assay: Test 22 growth chamber, postemergence; assay type: in vivo, Galium aparine; conditions: 25 DAA; 2,4-D or MCPA alone 250 g a.i./ha
Description: as §1, with “stage, except KCHSC, SASKR” for “stage,”, “STEME which were in the 4-8 leaf growth stage. Each” for “each”, “one time.” for “three times.”, “from single” for “means of the three”

field poppy (PAPRH) = assay: Test 23 growth chamber, postemergence; assay type: in vivo, Papaver rhoeas; conditions: 21 DAA; 2,4-D or MCPA alone 250 g a.i./ha
Description: as §1

Russian thistle (SASKR) [4] = assay: Test 23 growth chamber, postemergence; assay type: in vivo, Salsola kali; conditions: 21 DAA; 2,4-D or MCPA alone 250 g a.i./ha
Description: as §1

winter barley (HORVW) [5] = assay: Test 22 growth chamber, postemergence; assay type: in vivo, Hordeum vulgare; conditions: 25 DAA; 2,4-D or MCPA alone 250 g a.i./ha
Description: as §1, with “stage, except KCHSC, SASKR” for “stage,”, “STEME which were in the 4-8 leaf growth stage. Each” for “each”, “one time.” for “three times.”, “from single” for “means of the three”

winter barley (HORVW) [6] = assay: Test 20 growth chamber, postemergence; assay type: in vivo, Hordeum vulgare; conditions: 25 DAA; 2,4-D or MCPA alone 250 g a.i./ha
Description: as §1, with “vulgare L.) and” for “vulgare L.),”, “aestivum L.)” for “aestivum L.), and several weed species”, “the 2-leaf” for “the 2-4 leaf”, “replicated a total of four times (three times in the loam/sand blend and one time in RediEarth).” for “replicated three times.”, “are the” for “are”, “the four” for “the three”

wild mustard (SINAR) [7] = assay: Test 22 growth chamber, postemergence; assay type: in vivo, Sinapis arvensis; conditions: 25 DAA; 2,4-D or MCPA alone 250 g a.i./ha
Description: as §1, with “stage, except KCHSC, SASKR” for “stage,”, “STEME which were in the 4-8 leaf growth stage. Each” for “each”, “one time.” for “three times.”, “from single” for “means of the three”

field violet (VIOAR) = assay: Test 23 growth chamber, postemergence; assay type: in vivo, Viola arvensis; conditions: 21 DAA; 2,4-D or MCPA alone 250 g a.i./ha
Description: as §1

wild mustard (SINAR) [8] = assay: Test 23 growth chamber, postemergence; assay type: in vivo, Sinapis arvensis; conditions: 21 DAA; 2,4-D or MCPA alone 250 g a.i./ha
Description: as §1

common chickweed (STEME) [9] = assay: Test 22 growth chamber, postemergence; assay type: in vivo, Stellaria media; conditions: 25 DAA; 2,4-D or MCPA alone 250 g a.i./ha
Description: as §1, with “stage, except KCHSC, SASKR” for “stage,”, “STEME which were in the 4-8 leaf growth stage. Each” for “each”, “one time.” for “three times.”, “from single” for “means of the three”

[10] = test system: common lambsquarters (CHEAL); assay: Test 23 growth chamber, postemergence; assay type: in vivo, Chenopodium album; conditions: 21 DAA; 2,4-D or MCPA alone 250 g a.i./ha
Description: as §1

wild chamomile (MATCH) = assay: Test 23 growth chamber, postemergence; assay type: in vivo, Matricaria chamomilla; conditions: 21 DAA; 2,4-D or MCPA alone 250 g a.i./ha
Description: as §1

winter wheat (TRZAW) [11] = assay: Test 20 growth chamber, postemergence; assay type: in vivo, Triticum aestivum; conditions: 25 DAA; 2,4-D or MCPA alone 250 g a.i./ha
Description: as §1, with “vulgare L.) and” for “vulgare L.),”, “aestivum L.)” for “aestivum L.), and several weed species”, “the 2-leaf” for “the 2-4 leaf”, “replicated a total of four times (three times in the loam/sand blend and one time in RediEarth).” for “replicated three times.”, “are the” for “are”, “the four” for “the three”

winter barley (HORVW) [12] = assay: Test 23 growth chamber, postemergence; assay type: in vivo, Hordeum vulgare; conditions: 21 DAA; 2,4-D or MCPA alone 250 g a.i./ha
Description: as §1

[13] = test system: common lambsquarters (CHEAL); assay: Test 22 growth chamber, postemergence; assay type: in vivo, Chenopodium album; conditions: 25 DAA; 2,4-D or MCPA alone 250 g a.i./ha
Description: as §1, with “stage, except KCHSC, SASKR” for “stage,”, “STEME which were in the 4-8 leaf growth stage. Each” for “each”, “one time.” for “three times.”, “from single” for “means of the three”

kochia (KCHSC) [14] = assay: Test 23 growth chamber, postemergence; assay type: in vivo, Kochia scoparia; conditions: 21 DAA; 2,4-D or MCPA alone 250 g a.i./ha
Description: as §1

wild buckwheat (POLCO) [15] = assay: Test 22 growth chamber, postemergence; assay type: in vivo, Polygonum convolvulus; conditions: 25 DAA; 2,4-D or MCPA alone 250 g a.i./ha
Description: as §1, with “stage, except KCHSC, SASKR” for “stage,”, “STEME which were in the 4-8 leaf growth stage. Each” for “each”, “one time.” for “three times.”, “from single” for “means of the three”

winter wheat (TRZAW) [16] = assay: Test 22 growth chamber, postemergence; assay type: in vivo, Triticum aestivum; conditions: 25 DAA; 2,4-D or MCPA alone 250 g a.i./ha
Description: as §1, with “stage, except KCHSC, SASKR” for “stage,”, “STEME which were in the 4-8 leaf growth stage. Each” for “each”, “one time.” for “three times.”, “from single” for “means of the three”

galium (GALAP) [17] = assay: Test 23 growth chamber, postemergence; assay type: in vivo, Galium aparine; conditions: 21 DAA; 2,4-D or MCPA alone 250 g a.i./ha
Description: as §1

wild buckwheat (POLCO) [18] = assay: Test 23 growth chamber, postemergence; assay type: in vivo, Polygonum convolvulus; conditions: 21 DAA; 2,4-D or MCPA alone 250 g a.i./ha
Description: as §1

Russian thistle (SASKR) [19] = assay: Test 22 growth chamber, postemergence; assay type: in vivo, Salsola kali; conditions: 25 DAA; 2,4-D or MCPA alone 250 g a.i./ha
Description: as §1, with “stage, except KCHSC, SASKR” for “stage,”, “STEME which were in the 4-8 leaf growth stage. Each” for “each”, “one time.” for “three times.”, “from single” for “means of the three”

common chickweed (STEME) [20] = assay: Test 23 growth chamber, postemergence; assay type: in vivo, Stellaria media; conditions: 21 DAA; 2,4-D or MCPA alone 250 g a.i./ha
Description: as §1

redroot pigweed (AMARE) [21] = assay: Test 22 growth chamber, postemergence; assay type: in vivo, Amaranthus retroflexus; conditions: 25 DAA; 2,4-D or MCPA alone 250 g a.i./ha
Description: as §1, with “stage, except KCHSC, SASKR” for “stage,”, “STEME which were in the 4-8 leaf growth stage. Each” for “each”, “one time.” for “three times.”, “from single” for “means of the three”

winter wheat (TRZAW) [22] = assay: Test 23 growth chamber, postemergence; assay type: in vivo, Triticum aestivum; conditions: 21 DAA; 2,4-D or MCPA alone 250 g a.i./ha
Description: as §1

Question: What does the source list for `Cc1cc(Cl)ccc1OCC(=O)O` [MCPA]?
Answer: Postemergence AMARE Obs (redroot pigweed (AMARE) [1]): 63; Postemergence KCHSC Obs (kochia (KCHSC) [2]): 55; Postemergence GALAP Obs (galium (GALAP) [3]): 50; Postemergence PAPRH Obs (field poppy (PAPRH)): 57; Postemergence SASKR Obs (Russian thistle (SASKR) [4]): 43; Postemergence HORVW Obs (winter barley (HORVW) [5]): 25; Postemergence HORVW Obs (winter barley (HORVW) [6]): 33; Postemergence SINAR Obs (wild mustard (SINAR) [7]): 75; Postemergence VIOAR Obs (field violet (VIOAR)): 60; Postemergence SINAR Obs (wild mustard (SINAR) [8]): 65; Postemergence STEME Obs (common chickweed (STEME) [9]): 50; Postemergence CHEAL Obs [10]: 70; Postemergence MATCH Obs (wild chamomile (MATCH)): 53; Postemergence TRZAW Obs (winter wheat (TRZAW) [11]): 18; Postemergence HORVW Obs (winter barley (HORVW) [12]): 35; Postemergence CHEAL Obs [13]: 65; Postemergence KCHSC Obs (kochia (KCHSC) [14]): 67; Postemergence POLCO Obs (wild buckwheat (POLCO) [15]): 40; Postemergence TRZAW Obs (winter wheat (TRZAW) [16]): 10; Postemergence GALAP Obs (galium (GALAP) [17]): 43; Postemergence POLCO Obs (wild buckwheat (POLCO) [18]): 52; Postemergence SASKR Obs (Russian thistle (SASKR) [19]): 45; Postemergence STEME Obs (common chickweed (STEME) [20]): 55; Postemergence AMARE Obs (redroot pigweed (AMARE) [21]): 65; Postemergence TRZAW Obs (winter wheat (TRZAW) [22]): 32
